Source: patent publication US8450308B2 (Vitae Pharmaceuticals, Inc., priority 2008, dated 2013)

Legend:
[1] = biological target: T1, truncated human beta-secretase (residues 1-458, His6-tagged at the C-terminus) (Homo sapiens, UniProt P56817); assay: BACE fluorescence quench assay; assay type: biochemical; conditions: in vitro enzyme activity, BACE fluorescence assay, pH 4.5; read-out: IC50
T1 construct: truncated human beta-secretase (residues 1-458, His6-tagged at the C-terminus); His6 (C); made in house; host or cells: insect cells D. melanogaster S2 (baculovirus expression system (so in the source))

[2] = BACE cell assay: soluble Amyloid Beta 1-40 (Aβ 1-40) in culture media of H4-APPsw cells; assay type: cell-based; conditions: in vitro cell activity, H4-APPsw cells, secreted Aβ 1-40, overnight treatment; read-out: IC50
Description: H4 neuroglioma cell line that stably expresses Amyloid Precursor Protein (APP) containing the KM-NL Swedish mutation (H4-APPsw) was generated. For the assay, cells are treated overnight in the presence of inhibitor and the culture media are subjected to ELISA analysis of soluble Amyloid Beta 1-40 (Aβ 1-40).
H4 neuroglioma cell line was cultured in DMEM with 10% FBS and 1% penicillin/streptomycin (Culture Medium) at 37° C., 5% CO2. […] 24 hrs after transfection, the cells were replaced into three new plates (150 mm) in fresh Culture Medium with 250 ug/ml Zeocin. […] The levels of APPsw expression were analyzed by immunoblotting and the production of Aβ 1-40 was detected by ELISA of culture supernatants. The selected clones are maintained in Culture Medium with 250 μg/ml Zeocin and routinely split in 3-4 days to maintain 20-80% confluence.
Split cells. Split H4-APPsw cells in Culture Medium and culture overnight such that cells will be ˜80% confluent next morning.
Create Compound Dilution Plate. After determining the desired final concentration of compound to be tested, create a 500× dilution plate. Add DMSO, but not inhibitor, to each well of Column 1. […] Add compounds of interest at 500× desired final concentration to wells A3-A10. Add DMSO, but not inhibitor, to each well of Columns 11 and 12. Dilute contents of Row A 1:3 in Row B. then continue through Rows C—H.
Create Media Plate. To create a 2× solution of compound in media, add 996 μL Culture Medium to each well of a 96-well 2 ml deep well plate (Media Plate) in biosafety hood. Add 4 μL 5 mM control compound to Media Plate wells A1-D1 for determination of full inhibition.
Add media to Cell Plate. With a multichannel pipettor, mix each well of Media Plate several times to insure homogeneity. Add 100 μL of mixture to Black polymer bottom P-D-L plates. Next, place Medium Plate and Cell Plate in the incubator.
Add cells to Cell Plate. Trypsinize and count H4-APPsw cells. Dilute cells 6×10^5 cells/ml in Culture Medium and remove Cell Plate from incubator. Vortex cells to homogeneity, then using a multichannel repeating pipettor, add 100 μL cell suspension to Cell Plate, adding cells from Row H to Row A. Place Cell Plate in incubator.
Change media in Cell Plate. After 5 h, check Cell Plate by microscope to insure cells are attached. In culture hood, remove media from Cell Plate using multichannel repeating pipettor. Add 100 μl Culture Medium to each well. Remove Media Plate from incubator and mix with pipettor as previous. Add 100 μl from each well of Media Plate to corresponding well in Cell Plate. Place Cell Plate in incubator overnight.
Perform ELISA to determine levels of secreted Aβ 1-40. After 16 h incubation, spin Cell Plate for 8 min at 1200 rpm. The primary reading of Aβ 1-40 levels is done using PerkinElmer AlphaLISA technology. Follow the manufacturer's protocol for performing AlphaLISA in a white ½ area Optiwell plate using Row 12 for peptide standard (1:2 dilutions, starting at 15 ng/ml). Data are acquired using PerkinElmer Fusion-Alpha FP-HT, Alpha protocol (Count Time 0.6 s, Count Time Ratio 30%:70%).
Export data from Fusion using Columnar Report format into a separate file for each plate. Upload data into Activity Base using RIA-DOSE-RESPONSE protocol (Version 1). Data from at least eight doses were fitted to a four parameter logistical model using XLfit software to determine potency.

T1 sequence (P56817 22-458): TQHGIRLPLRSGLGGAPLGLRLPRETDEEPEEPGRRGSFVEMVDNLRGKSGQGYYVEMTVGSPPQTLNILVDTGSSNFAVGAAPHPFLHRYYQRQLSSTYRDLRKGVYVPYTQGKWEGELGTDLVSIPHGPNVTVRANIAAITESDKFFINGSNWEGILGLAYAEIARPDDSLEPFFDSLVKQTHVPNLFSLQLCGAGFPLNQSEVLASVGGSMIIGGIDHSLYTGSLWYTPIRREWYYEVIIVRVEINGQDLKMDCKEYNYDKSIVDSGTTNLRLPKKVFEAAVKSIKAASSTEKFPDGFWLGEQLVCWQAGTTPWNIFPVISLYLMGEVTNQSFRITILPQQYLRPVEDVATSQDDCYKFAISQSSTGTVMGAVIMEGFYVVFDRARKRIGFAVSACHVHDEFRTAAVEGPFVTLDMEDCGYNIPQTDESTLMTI

SMILES	IC50 [1]	IC50 [2]
CN1O[C@]2(C[C@H]([C@@H]3CCCOC3)Oc3ccc(-c4cc(F)cc(F)c4)cc32)N=C1N (racemic) [Compound 322, (2S,4R/2R,4S)-6-(3,5-difluorophenyl)-2′-methyl-2-((S/R)-tetrahydro-2H-pyran-3-yl)-2′H-spiro[chroman-4,5′-[1,2,4]oxadiazol]-3′-amine]	0.1 to 0.5 µM	5 to 10 µM
CN1O[C@]2(C[C@@H]([C@@H]3CCCOC3)Oc3ccc(-c4cc(F)cc(F)c4)cc32)N=C1N (racemic) [Compound 323, (±)-(2S,4S)-6-(3,5-difluorophenyl)-2′-methyl-2-((R)-tetrahydro-2H-pyran-3-yl)-2′H-spiro[chroman-4,5′-[1,2,4]oxadiazol]-3′-amine]	0.1 to 0.5 µM	1 to 5 µM
CN1OC2(CC3(CC4CCC3OC4)Oc3ccc(-c4cccc(C#N)c4)cc32)N=C1N (single isomer, unassigned) [Compound 379]	1 to 5 µM	1 to 5 µM
CN1OC2(C[C@]3(CC4CCC3OC4)Oc3ccc(-c4cccc(C#N)c4)cc32)N=C1N (single isomer, unassigned) [Compound 403]	1 to 5 µM	5 to 10 µM
CN1OC2(C[C@@]3(CC4CCC3OC4)Oc3ccc(-c4cccc(C#N)c4)cc32)N=C1N (single isomer, unassigned) [Compound 408]	1 to 5 µM	5 to 10 µM
CN1C(=O)C2(C[C@@H](C3CCCc4ccccc43)Oc3ccc(-c4cccc(C#N)c4)cc32)N=C1N (stereo in doubt) [Compound 282, 3-(2′-amino-1′-methyl-5′-oxo-2-(1,2,3,4-tetrahydronaphthalen-1-yl)-1′,5′-dihydrospiro[chroman-4,4′-imidazole]-6-yl)benzonitrile]	0.1 to 0.5 µM	1 to 5 µM
CN1C(=O)C2(CC([C@H]3CCCc4ccccc43)Oc3ccc(-c4cccc(C#N)c4)cc32)N=C1N (stereo in doubt) [Compound 335, 3-(2′-amino-1′-methyl-5′-oxo-2-(1,2,3,4-tetrahydronaphthalen-1-yl)-1′,5′-dihydrospiro[chroman-4,4′-imidazole]-6-yl)benzonitrile]	0.1 to 0.5 µM	5 to 10 µM
CN1O[C@@]2(C[C@@H](C3CCOc4ccccc43)Oc3ccc(-c4cccc(C#N)c4)cc32)N=C1N (stereo partly shown) [Compound 279]	0.1 to 0.5 µM	1 to 5 µM
CN1C(=O)[C@@]2(C[C@]3(CCCOC3)Oc3ccc(-c4cc(F)cc(F)c4F)cc32)N=C1N [Compound 280]	0.1 to 0.5 µM	0.1 to 0.5 µM
COc1cc(OC)cc(-c2ccc3c(c2)[C@]2(C[C@]4(CCCOC4)O3)N=C(N)N(C)C2=O)c1 [Compound 283]	0.1 to 0.5 µM	0.1 to 0.5 µM
CN1C(=O)C2(CC3(CCCOC3)Oc3ccc(-c4cc(F)cc(Cl)c4)cc32)N=C1N (stereo not shown) [Compound 286]	0.1 to 0.5 µM	0.1 to 0.5 µM
Cc1ccc(F)cc1-c1ccc2c(c1)[C@]1(C[C@]3(CCCOC3)O2)N=C(N)N(C)C1=O [Compound 287]	0.1 to 0.5 µM	0.1 to 0.5 µM
CN1C(=O)C2(CC3(CCCOC3)Oc3ccc(-c4cc(C#N)ccc4F)cc32)N=C1N (stereo not shown) [Compound 288]	0.1 to 0.5 µM	0.1 to 0.5 µM
CN1C(=O)C2(CC3(CCCOC3)Oc3ccc(-c4cccc(Cl)c4)cc32)N=C1N (stereo not shown) [Compound 290]	0.1 to 0.5 µM	0.5 to 1 µM
CN1O[C@]2(C[C@H]([C@H]3CCOC(C)(C)C3)Oc3ccc(-c4cccc(C#N)c4)cc32)N=C1N [Compound 293]	0.1 to 0.5 µM	1 to 5 µM
CN1OC2(CC(C3CCOC(C)(C)C3)Oc3ccc(-c4cccc(Br)c4)cc32)N=C1N (stereo not shown) [Compound 294]	0.1 to 0.5 µM	1 to 5 µM
CN1OC2(C[C@H]([C@H]3CCOC(C)(C)C3)Oc3ccc(-c4cc(F)cc(Cl)c4)cc32)N=C1N (stereo partly shown) [Compound 295]	0.1 to 0.5 µM	1 to 5 µM
CN1OC2(CC(C3CCOC(C)(C)C3)Oc3ccc(-c4cccc(C(F)(F)F)c4)cc32)N=C1N (stereo not shown) [Compound 297]	0.1 to 0.5 µM	1 to 5 µM
CC1CC[C@]2(CO1)C[C@]1(N=C(N)N(C)O1)c1cc(-c3cc(F)cc(Cl)c3)ccc1O2 (stereo partly shown) [Compound 298]	0.1 to 0.5 µM	1 to 5 µM

SMILES	IC50 [1]	IC50 [2]
CN1OC2(C[C@H]([C@@H]3CCOC(C)(C)C3)Oc3ccc(-c4cc(F)cc(Cl)c4)cc32)N=C1N (stereo partly shown) [Compound 299]	0.1 to 0.5 µM	1 to 5 µM
CC1CC[C@]2(CO1)C[C@]1(N=C(N)N(C)O1)c1cc(-c3cccc(Cl)c3)ccc1O2 (stereo partly shown) [Compound 303]	0.1 to 0.5 µM	1 to 5 µM
CN1OC2(C[C@@H](C34CCC(CC3)OC4)Oc3ccc(-c4cccc(C#N)c4)cc32)N=C1N (stereo partly shown) [Compound 305]	0.1 to 0.5 µM	5 to 10 µM
CN1OC2(C[C@H]([C@@H]3CCOC(C)(C)C3)Oc3ccc(-c4cccc(C#N)c4F)cc32)N=C1N (stereo partly shown) [Compound 306]	0.1 to 0.5 µM	1 to 5 µM
CN1OC2(CC3(CCCc4ccccc4C3)Oc3ccc(C#CC(C)(C)C)cc32)N=C1N (stereo not shown) [Compound 308]	0.1 to 0.5 µM	1 to 5 µM
COc1ccc2c(c1)CCC[C@@]1(C2)C[C@@]2(N=C(N)N(C)O2)c2cc(-c3cccc(C#N)c3)ccc2O1 [Compound 311]	0.1 to 0.5 µM	0.5 to 1 µM
CN1OC2(CC3(CCC(c4ccccc4)CC3)Oc3ccc(-c4cccc(C#N)c4)cc32)N=C1N (stereo not shown) [Compound 313]	0.1 to 0.5 µM	1 to 5 µM
CN1C(=O)C2(CC3(CCCOC3)Oc3ccc(-c4cc(F)cc(F)c4)cc32)N=C1N (stereo not shown) [Compound 314]	0.1 to 0.5 µM	0.5 to 1 µM
CN1OC2(CC3(CCCc4ccccc4C3)Oc3ccc(C#CC4CCCC4)cc32)N=C1N (stereo not shown) [Compound 317]	0.1 to 0.5 µM	1 to 5 µM
CN1OC2(CC3(CCCc4ncccc43)Oc3ccc(-c4cccc(C#N)c4)cc32)N=C1N (stereo not shown) [Compound 320]	0.1 to 0.5 µM	1 to 5 µM
CN1OC2(CC3(CCc4ccccc4C3)Oc3ccc(-c4cccc(C#N)c4)cc32)N=C1N (stereo not shown) [Compound 324]	0.1 to 0.5 µM	5 to 10 µM
CC1CC[C@]2(CO1)C[C@]1(N=C(N)N(C)O1)c1cc(-c3ccc(F)c(Cl)c3)ccc1O2 (stereo partly shown) [Compound 330]	0.1 to 0.5 µM	1 to 5 µM
CN1O[C@@]2(C[C@H](C3CCOc4ccccc43)Oc3ccc(-c4cccc(C#N)c4)cc32)N=C1N (stereo partly shown) [Compound 331]	0.1 to 0.5 µM	5 to 10 µM
COc1cc(OC)cc(-c2ccc3c(c2)[C@]2(C[C@@]4(CCCOC4)O3)N=C(N)N(C)C2=O)c1 [Compound 333]	0.1 to 0.5 µM	1 to 5 µM
CN1C(=O)C2(CC3(CCCOC3)Oc3ccc(-c4cccc(C(F)(F)F)c4)cc32)N=C1N (stereo not shown) [Compound 338]	0.1 to 0.5 µM	1 to 5 µM
CN1OC2(C[C@H](C34CCC(CC3)OC4)Oc3ccc(-c4cccc(C#N)c4)cc32)N=C1N (stereo partly shown) [Compound 345]	0.1 to 0.5 µM	5 to 10 µM
CN1O[C@]2(C[C@@H]([C@H]3CCCOC3)Oc3ccc(-c4cc(F)cc(F)c4)cc32)N=C1N [Compound 348]	0.5 to 1 µM	5 to 10 µM
CN1OC2(CC3(CCCc4ccccc4C3)Oc3ccc(Br)cc32)N=C1N (stereo not shown) [Compound 349]	0.5 to 1 µM	1 to 5 µM
CN1OC2(CC3(CCCc4ccccc4C3)Oc3ccc(-c4ccc5cc[nH]c5c4)cc32)N=C1N (stereo not shown) [Compound 352]	0.5 to 1 µM	1 to 5 µM
